Laboratory results from ChEMBL document CHEMBL3745645, “Synthesis, in vitro antitumor activity, dihydrofolate reductase inhibition, DNA intercalation and structure-activity relationship studies of 1,3,5-triazine analogues” (Bioorg Med Chem Lett, 2016).
Activity calls are given as the source filed them. The calls are words filed in the database; no cut-off is given here.

What was measured:
Type in all cases: functional
[1] = system: OVCAR-5; assay: Cytotoxicity against human OVCAR5 cells at 10 uM after 48 hrs by SRB assay
[2] = Cytotoxicity against human IGROV1 cells at 10 uM after 48 hrs by SRB assay; settings: IGROV-1, 48 h, read-out: GI
[3] = Cytotoxicity against human SNB19 cells at 10 uM after 48 hrs by SRB assay; settings: SNB-19, 48 h, read-out: GI
[4] = system: ACHN; assay: Cytotoxicity against human ACHN cells at 10 uM after 48 hrs by SRB assay; settings: read-out: GI
[5] = system: HL-60(TB); assay: Cytotoxicity against human HL-60(TB) cells at 10 uM after 48 hrs by SRB assay
[6] = system: MOLT-4; assay: Cytotoxicity against human MOLT4 cells at 10 uM after 48 hrs by SRB assay
[7] = system: HCT-15; assay: Cytotoxicity against human HCT15 cells at 10 uM after 48 hrs by SRB assay
[8] = system: SN12C; assay: Cytotoxicity against human SN12C cells at 10 uM after 48 hrs by SRB assay; settings: read-out: GI
[9] = system: SK-MEL-5; assay: Cytotoxicity against human SK-MEL-5 cells at 10 uM after 48 hrs by SRB assay; settings: SK-MEL-5, 48 h, read-out: GI
[10] = system: RPMI-8226; assay: Cytotoxicity against human RPMI8226 cells at 10 uM after 48 hrs by SRB assay
[11] = Cytotoxicity against human RXF393 cells at 10 uM after 48 hrs by SRB assay; settings: RXF 393, 48 h, read-out: GI
[12] = system: NCI-H322M; assay: Cytotoxicity against human NCI-H322M cells at 10 uM after 48 hrs by SRB assay; settings: read-out: GI
[13] = Cytotoxicity against human COLO205 cells at 10 uM after 48 hrs by SRB assay; settings: COLO 205, 48 h, read-out: GI
[14] = Cytotoxicity against human Caki1 cells at 10 uM after 48 hrs by SRB assay; settings: CAKI-1, 48 h, read-out: GI
[15] = Cytotoxicity against human HOP92 cells at 10 uM after 48 hrs by SRB assay; settings: HOP-92, 48 h, read-out: GI
[16] = system: MDA-MB-231; assay: Cytotoxicity against human MDA-MB-231 cells at 10 uM after 48 hrs by SRB assay; settings: MDA-MB-231, 48 h, read-out: GI
[17] = Cytotoxicity against human UACC257 cells at 10 uM after 48 hrs by SRB assay; settings: UACC-257, 48 h, read-out: GI
[18] = Cytotoxicity against human SNB75 cells at 10 uM after 48 hrs by SRB assay; settings: SNB-75, 48 h, read-out: GI
[19] = Cytotoxicity against human SF295 cells at 10 uM after 48 hrs by SRB assay; settings: SF-295, 48 h, read-out: GI
[20] = Cytotoxicity against human DU145 cells at 10 uM after 48 hrs by SRB assay; settings: DU-145, 48 h, read-out: GI
[21] = system: T47D; assay: Cytotoxicity against human T47D cells at 10 uM after 48 hrs by SRB assay; settings: read-out: GI
[22] = Cytotoxicity against human HCC2998 cells at 10 uM after 48 hrs by SRB assay; settings: HCC 2998, 48 h, read-out: GI
[23] = system: M14; assay: Cytotoxicity against human M14 cells at 10 uM after 48 hrs by SRB assay; settings: M14, 48 h, read-out: GI
[24] = Cytotoxicity against human SF268 cells at 10 uM after 48 hrs by SRB assay; settings: SF-268, 48 h, read-out: GI
[25] = Cytotoxicity against human LOXIMVI cells at 10 uM after 48 hrs by SRB assay; settings: LOX IMVI, read-out: GI
[26] = system: SR; assay: Cytotoxicity against human SR cells at 10 uM after 48 hrs by SRB assay
[27] = system: MDA-MB-435; assay: Cytotoxicity against human MDA-MB-435 cells at 10 uM after 48 hrs by SRB assay; settings: MDA-MB-435, 48 h, read-out: GI
[28] = Cytotoxicity against human HOP62 cells at 10 uM after 48 hrs by SRB assay; settings: HOP-62, 48 h, read-out: GI
[29] = Cytotoxicity against human SW620 cells at 10 uM after 48 hrs by SRB assay; settings: SW-620, 48 h, read-out: GI
[30] = system: CCRF-CEM; assay: Cytotoxicity against human CCRF-CEM cells at 10 uM after 48 hrs by SRB assay
[31] = system: 786-0; assay: Cytotoxicity against human 786-0 cells at 10 uM after 48 hrs by SRB assay; settings: 786-0, 48 h, read-out: GI
[32] = Cytotoxicity against human OVCAR8 cells at 10 uM after 48 hrs by SRB assay; settings: OVCAR-8, 48 h, read-out: GI
[33] = system: A498; assay: Cytotoxicity against human A498 cells at 10 uM after 48 hrs by SRB assay; settings: A498, 48 h, read-out: GI
[34] = Cytotoxicity against human OVCAR4 cells at 10 uM after 48 hrs by SRB assay; settings: OVCAR-4, 48 h, read-out: GI
[35] = system: A549; assay: Cytotoxicity against human A549 cells at 10 uM after 48 hrs by SRB assay; settings: A549, 48 h, read-out: GI
[36] = system: NCI-H226; assay: Cytotoxicity against human NCI-H226 cells at 10 uM after 48 hrs by SRB assay; settings: NCI-H226, 48 h, read-out: GI
[37] = Cytotoxicity against human BT549 cells at 10 uM after 48 hrs by SRB assay; settings: BT-549, 48 h, read-out: GI
[38] = system: MDA-MB-468; assay: Cytotoxicity against human MDA-MB-468 cells at 10 uM after 48 hrs by SRB assay; settings: MDA-MB-468, 48 h, read-out: GI
[39] = system: MCF7; assay: Cytotoxicity against human MCF7 cells at 10 uM after 48 hrs by SRB assay; settings: MCF7, 48 h, read-out: GI
[40] = Cytotoxicity against human SKOV3 cells at 10 uM after 48 hrs by SRB assay; settings: SK-OV-3, 48 h, read-out: GI
[41] = system: KM12; assay: Cytotoxicity against human KM12 cells at 10 uM after 48 hrs by SRB assay; settings: KM12, 48 h, read-out: GI
[42] = system: K562; assay: Cytotoxicity against human K562 cells at 10 uM after 48 hrs by SRB assay
[43] = system: NCI/ADR-RES; assay: Cytotoxicity against human NCI-ADR-RES cells at 10 uM after 48 hrs by SRB assay
[44] = system: U-251; assay: Cytotoxicity against human U251 cells at 10 uM after 48 hrs by SRB assay; settings: U-251, 48 h, read-out: GI
[45] = Cytotoxicity against human HCT116 cells at 10 uM after 48 hrs by SRB assay; settings: HCT-116, 48 h, read-out: GI
[46] = system: NCI-H460; assay: Cytotoxicity against human NCI-H460 cells at 10 uM after 48 hrs by SRB assay; settings: NCI-H460, 48 h, read-out: GI
[47] = system: NCI-H522; assay: Cytotoxicity against human NCI-H522 cells at 10 uM after 48 hrs by SRB assay; settings: NCI-H522, 48 h, read-out: GI
[48] = system: Hs-578T; assay: Cytotoxicity against human Hs 578T cells at 10 uM after 48 hrs by SRB assay
[49] = Cytotoxicity against human UO31 cells at 10 uM after 48 hrs by SRB assay; settings: UO-31, 48 h, read-out: GI
[50] = Cytotoxicity against human SF539 cells at 10 uM after 48 hrs by SRB assay; settings: SF-539, 48 h, read-out: GI
[51] = Cytotoxicity against human OVCAR3 cells at 10 uM after 48 hrs by SRB assay; settings: OVCAR-3, 48 h, read-out: GI
[52] = system: SK-MEL-2; assay: Cytotoxicity against human SK-MEL-2 cells at 10 uM after 48 hrs by SRB assay; settings: SK-MEL-2, 48 h, read-out: GI
[53] = system: Malme-3M; assay: Cytotoxicity against human MALME-3M cells at 10 uM after 48 hrs by SRB assay; settings: read-out: GI
[54] = system: SK-MEL-28; assay: Cytotoxicity against human SK-MEL-28 cells at 10 uM after 48 hrs by SRB assay
[55] = system: HT-29; assay: Cytotoxicity against human HT-29 cells at 10 uM after 48 hrs by SRB assay; settings: HT-29, 48 h, read-out: GI
[56] = system: TK-10; assay: Cytotoxicity against human TK10 cells at 10 uM after 48 hrs by SRB assay

For `Cc1nc2cc(Nc3nc(NCCN)nc(Nc4ccc(F)cc4)n3)ccc2n1Cc1ccccc1`, the “growth inhibition (GI)” value [1] was “inactive”, the inhibition of growth at 10 µM [2] was 18.6% and the inhibition of growth at 10 µM [3] was 8.37%. The inhibition of growth at 10 µM [4] was 3.22%, the “growth inhibition (GI)” value [5] was “Active” and the “growth inhibition (GI)” value [6] was “Active”. The “growth inhibition (GI)” value [7] was “inactive”, the inhibition of growth at 10 µM [8] was 14.9% and the inhibition of growth at 10 µM [9] was 13.4%. For the same compound, the “growth inhibition (GI)” value [10] was “Active”, the inhibition of growth at 10 µM [11] was 28% and the inhibition of growth at 10 µM [12] was 0.32%. For the same compound, the inhibition of growth at 10 µM [13] was 18%, the inhibition of growth at 10 µM [14] was 5.83% and the inhibition of growth at 10 µM [15] was 51.5%. For the same compound, the inhibition of growth at 10 µM [16] was 39.6%, the inhibition of growth at 10 µM [17] was 9.53% and the inhibition of growth at 10 µM [18] was 15.8%. The inhibition of growth at 10 µM [19] was 20.2%, the inhibition of growth at 10 µM [20] was 17.8% and the inhibition of growth at 10 µM [21] was 30.9%. For the same compound, the inhibition of growth at 10 µM [22] was 29.4%, the inhibition of growth at 10 µM [23] was 18.4% and the inhibition of growth at 10 µM [24] was 28.2%. For the same compound, the inhibition of growth at 10 µM [25] was 41.8%, the “growth inhibition (GI)” value [26] was “Active” and the inhibition of growth at 10 µM [27] was 19.6%. The inhibition of growth at 10 µM [28] was 20.9%, the inhibition of growth at 10 µM [29] was 26.1% and the “growth inhibition (GI)” value [30] was “Active”. For the same compound, the inhibition of growth at 10 µM [31] was 17.6%, the inhibition of growth at 10 µM [32] was 10.9% and the inhibition of growth at 10 µM [33] was 32.6%. For the same compound, the inhibition of growth at 10 µM [34] was 23%, the inhibition of growth at 10 µM [35] was 16.1% and the inhibition of growth at 10 µM [36] was 4.61%. For the same compound, the inhibition of growth at 10 µM [37] was 9.96%, the inhibition of growth at 10 µM [38] was 26.8% and the inhibition of growth at 10 µM [39] was 31.2%. The inhibition of growth at 10 µM [40] was 4.49%, the inhibition of growth at 10 µM [41] was 29.4% and the “growth inhibition (GI)” value [42] was “Active”. For the same compound, the “growth inhibition (GI)” value [43] was “inactive”, the inhibition of growth at 10 µM [44] was 22.6% and the inhibition of growth at 10 µM [45] was 39.7%. The inhibition of growth at 10 µM [46] was 17.4%, the inhibition of growth at 10 µM [47] was 14.1% and the “growth inhibition (GI)” value [48] was “inactive”. It also gave an inhibition of growth at 10 µM [49] of 10.7%, an inhibition of growth at 10 µM [50] of 3.98% and an inhibition of growth at 10 µM [51] of 13.3%. The inhibition of growth at 10 µM [52] was 9.54%, the inhibition of growth at 10 µM [53] was 6.46% and the “growth inhibition (GI)” value [54] was “inactive”. For the same compound, the inhibition of growth at 10 µM [55] was 64.9% and the “growth inhibition (GI)” value [56] was “inactive”.
